In patent publication US20090182014A1, “INSECTICIDAL COMPOSITIONS COMPRISING COMPOUNDS HAVING INHIBITORY ACTIVITY VERSUS ACYL COA: CHOLESTEROL ACYLTRANSFERASE OR SALTS THEREOF AS EFFECTIVE INGREDIENTS” (priority 2003, published 2009):
Converted amounts (≈) assume the structure as drawn.

Key:
[1] = test system: acyl CoA:cholesterol acyltransferase (ACAT); assay: Assay for ACAT inhibitory activity using hepatic microsomes, cholesterol and 14C-labeled oleoyl-CoA; type: biochemical
Protocol: In the method, ACAT activity was determined using hepatic microsomes as a source of ACAT with substrates of cholesterol and ^14C-labeled oleoyl-CoA. The radioactivity of the reaction product cholesterol ester was estimated as the ACAT activity.
In detail, a reaction mixture was prepared as follows. […] To stabilize enzyme reaction, bovine serum albumin was added to the mixture to a final concentration of 30 μM. Then, a sample dissolved in DMSO or methanol was added to the mixture. The resulting reaction mixture was preincubated at 37° C. for 30 min. The enzyme reaction was then initiated by adding [1-^14C]-oleoyl Coenzyme A solution to a final concentration of 0.04 μCi. After 30 min of incubation at 37° C., the reaction was stopped by addition of 1 ml of an isopropanol-heptane solution. Then, 0.6 ml of n-heptane and 0.4 ml of KPB buffer were added to the terminated reaction mixture. The mixture was well mixed and allowed to stand at room temperature for 2 min. After phase separation, 200 μl of the supernatant was put into a scintillation vial. After adding 4 ml of a scintillation cocktail (Lipoluma, Lumac Co.) to the vial, the amount of synthesized cholesteryl oleate was measured with a scintillation counter (Packard Delta-200). The inhibitory activity versus ACAT was calculated according to the following Equation 1:
Inhibitory activity (%)=[1−(T−B/C−B)]×100
T: cpm in a test reaction mixture that contains a compound of the present invention along with an enzyme source;

[2] = test system: Tenebrio molitor L larvae; assay: Diet (wheat bran) assay against Tenebrio molitor L larvae: larval weight, growth, killing; type: in vivo; conditions: 1 mg mixed with 10 g wheat bran; for larval weight-reducing effect in T. molitor L larvae (FIG. 8): larval weight on day 3 and 7, compared with control
Protocol: Among the present compounds with an ACAT inhibitory activity, the phenylpyropene A, B and C (Formulas 2 to 4) were tested for weight-reducing effect in larval insects. In this test, larvae of Tenebrio molitor L. was used as an experimental insect, which was obtained from the insect research lab, KRIBB, Korea. Healthy second-instar larvae (10-12 mm) of Tenebrio molitor L was selected 24 hrs before performing this test. Each of the compounds of Formulas 2 to 4 was dissolved in 10% acetone to a final concentration of 1 mg/ml and serially diluted. 1 ml of the diluted compound solution was mixed with […] of wheat bran commonly used as a diet. The resulting mixture was put into a glass petri dish (90×20 mm), and the petri dish was placed in a desiccator for about 2 hrs under pressure to remove the organic solvent. After being weighed, 10 highly mobile larvae of T. molitor L for each test set were placed in a petri dish (87×15 mm) with a filter paper disk, together with the mixture of the present compound and wheat bran. Then, the larvae were grown in at 25±±1° C. under 40-45% relative humidity with a 16-hour light/8-hours dark cycle. After 72 hrs, larval weight and diet intake were recorded every three days. This assay was performed on three replicates, and a control group was treated with 10% acetone.

[3] = test system: Plutella xylostella L larvae; assay: Leaf-disk bioassay against Plutella xylostella L larvae; type: in vivo; conditions: treated with 0.001 to 1 mg; investigated at intervals of 24 hrs; compared with control
Protocol: Larvae of Plutella xylostella L was used as an experimental insect in this test, which was obtained from the Insect Research Lab, Korean Research Institute of Bioscience and Biotechnology (KRIBB), Oun-dong, Yusong-ku, Taejon, Korea. After being weighed accurately, a proper amount of the present compounds with an ACAT inhibitory activity were was dissolved in acetone, mixed with nine volumes of a 100 ppm Triton X-100 stock solution, and serially diluted, thus giving active compound solutions. A diet for the growth of the P. xylostella L larvae was prepared, as follows: leaves of cabbages with uniform growth were cut into leaf disks (3.0 cm in diameter), dipped in the active compound solutions for 30 sec, and dried in a hood for 60 min. Each of the active compound-treated leaf disks was put in a petri dish (55×20 mm) with a filter paper disk. Then, 10 second-instar larvae of P. xylostella L were placed on each leaf disc using a soft brush with caution not to damage the larvae, and grown in an incubator (25±1° C., 40-45% relative humidity, 16L:8D). After 24 hrs and 48 hrs, mortality was recorded. […] This leaf-disk bioassay was performed on three replicates, and LC50 (50% lethal concentration) was calculated by the Probit method developed by Finney (1982).

[4] = calculated from the μg/ml value and molecular weight
[5] = hepatic microsomes as source of ACAT

Molecule	ACAT inhibitory activity ([1]; concentration 20 μg/ml)	ACAT inhibitory activity ([1]; concentration 100 μg/ml)	larval growth inhibition in T. molitor L larvae (FIG. 9) [2]	larval weight-reducing effect in T. molitor L larvae (FIG. 8) [2]	other results
O=C(/C=C/C=C/c1ccc2c(c1)OCO2)N1CCCCC1 [Formula 10]	17.6%	82.0%	–	–	–
CC(=O)OC1CC[C@@]2(C)C(CC[C@@]3(C)Oc4cc(-c5ccccc5)oc(=O)c4CC23)C1(C)C (stereo partly shown) [phenylpyropene C]	–	–	larval growth inhibition was found	lasting larval weight-reducing effect	IC50 [1, 4]: 16 µM; IC50 (ACAT activity) [1, 5]: 7.2 µg/mL (≈ 16 µM)
Cc1cc(Cc2cc(C)cc(C(C)(C)C)c2O)c(O)c(C(C)(C)C)c1 [Formula 9]	93.4%	98.4%	–	–	–
CC(C)c1cccc(C(C)C)c1OC(=O)NS(=O)(=O)Oc1c(C(C)C)cccc1C(C)C [Formula 8]	84.5%	93.8%	–	–	–
CCCCCCCNC(=O)CCCCSC1NC(c2ccccc2)C(c2ccccc2)N1 (stereo not shown) [Formula 11]	84.8%	89.6%	–	–	–
CCCCCCCC/C=C\CCCCCCCC(=O)Nc1c(OC)cc(OC)cc1OC [Formula 7]	96.6%	97.8%	–	–	–
pheophorbide a	–	–	larval growth inhibition was found	–	–
CC(=O)OCC1(C)C2C[C@H](OC(C)=O)[C@@]3(C)Oc4cc(-c5ccccc5)oc(=O)c4[C@H](O)C3[C@@]2(C)CC[C@@H]1OC(C)=O (stereo partly shown) [phenylpyropene A]	–	–	larval growth inhibition was found	lasting larval weight-reducing effect	IC50 ([1]; calculated from the ng/ml value and molecular weight): 0.086 µM; IC50 (compound concentration to inhibit by 50% of ACAT activity) [1, 5]: 0.5 µg/mL
CC(=O)OC[C@@]1(C)[C@@H]2C[C@H](OC(C)=O)[C@@]3(C)Oc4cc(-c5cccnc5)oc(=O)c4[C@H](O)[C@@H]3[C@@]2(C)CC[C@@H]1OC(C)=O [pyripyropene A]	–	–	larval growth inhibition was found	–	insecticidal effect against P. xylostella L larvae (FIG. 6) [3]: lasting insecticidal effect in a dose-dependant manner; T. molitor L insect killed in the larval and pupa stages [2]: most of the T. molitor L insect was killed in the larval and pupa stages
CC(=O)OCC1(C)C(OC(C)=O)CC[C@@]2(C)C1CC[C@@]1(C)Oc3cc(-c4ccccc4)oc(=O)c3CC21 (stereo partly shown) [phenylpyropene B]	–	–	–	lasting larval weight-reducing effect	IC50 [1, 4]: 12.8 µM; IC50 (ACAT activity) [1, 5]: 6.5 µg/mL (≈ 12.8 µM)
